# Laboratory results from patent publication US7968588B2, “Injectable formulation of antibiotic and solution for intravenous administration thereof” (eRigen Pharmaceuticals, Inc., priority 2006, dated 2011).
# Starred links: 1 amine or outer side, 2 acyl side, 3 side chain; linkers in the order of their positions; H or OH if unused. Positions of bridges follow the written chain, without caps; N, C: chain ends. Non-standard residues stand in square brackets, D forms with d. Residues, ends and D or L forms follow the SMILES beside them. ξ: configuration not given here. ξAsn(3ξ-OH) = NC(=O)C(O)C(N)C(=O)O; X1 = CC(C)CCCC(CC(=O)[*:1])O[*:2]; NMeF = CN[CH](Cc1ccccc1)C(=O)O; NMeV = CN[CH](C(=O)O)C(C)C; Orn = NCCC[CH](N)C(=O)O
# System: MRSA (strain ATCC 33591)
# Assay: In vivo efficacy study in a MRSA infection model in mice
# Set-up: species or system Staphylococcus aureus
# Conditions: for survival (%) at dosage 1.0 mg/kg: single i.v. dose 1.0 mg/kg one hour after i.v. MRSA inoculation; for survival (%) at dosage 3.0 mg/kg: single i.v. dose 3.0 mg/kg one hour after i.v. MRSA inoculation; for 50% effective dose: single i.v. dose, calculated from the survival rate at each dosage
# Description: Efficacy was compared between the present solution of WAP-8294A2 prepared in the manner shown in Example 4 and vancomycin for injection (5% dextrose solution) using an MRSA infection model in mice.
# The 50% effective dose (mg/kg) was calculated from the survival rate at each dosage.
smiles,measurement,setting,value
"CN[C@H](CC(C)C)C(=O)N[C@H]1C(=O)N[C@@H](CC(N)=O)C(=O)N[C@H]2C(=O)N[C@H]3C(=O)N[C@H](C(=O)N[C@H](C(=O)O)c4cc(O)cc(O)c4-c4cc3ccc4O)[C@H](O)c3ccc(c(Cl)c3)Oc3cc2cc(c3O[C@@H]2O[C@H](CO)[C@@H](O)[C@H](O)[C@H]2O[C@H]2C[C@](C)(N)[C@H](O)[C@H](C)O2)Oc2ccc(cc2Cl)[C@H]1O [vancomycin, reference compound]",survival (%) at dosage 1.0 mg/kg,observed for a week,0%
same,survival (%) at dosage 3.0 mg/kg,observed for a week,30%
same,survival (%) at dosage 10 mg/kg,"single i.v. dose 10 mg/kg one hour after i.v. MRSA inoculation, observed for a week",100%
same,50% effective dose,,3.12 mg/kg
CC(C)CCCC1CC(=O)NC(CO)C(=O)NC(C(O)C(N)=O)C(=O)NC(CO)C(=O)NCC(=O)N(C)C(Cc2ccccc2)C(=O)NC(CC(C)C)C(=O)NC(CCCN)C(=O)NC(CCC(=O)O)C(=O)NC(CC(N)=O)C(=O)NC(Cc2c[nH]c3ccccc23)C(=O)NC(CCCN)C(=O)N(C)C(C(C)C)C(=O)O1 (centres unmarked) [WAP-8294A2] (S[ξAsn(3ξ-OH)]SG[NMeF]L[Orn]ENW[Orn][NMeV]; linker N-C via X1; configuration not given here),survival (%) at dosage 0.01 mg/kg,"single i.v. dose 0.01 mg/kg one hour after i.v. MRSA inoculation, observed for a week",10%
same,survival (%) at dosage 0.03 mg/kg,"single i.v. dose 0.03 mg/kg one hour after i.v. MRSA inoculation, observed for a week",30%
same,survival (%) at dosage 0.1 mg/kg,"single i.v. dose 0.1 mg/kg one hour after i.v. MRSA inoculation, observed for a week",60%
same,survival (%) at dosage 0.3 mg/kg,"single i.v. dose 0.3 mg/kg one hour after i.v. MRSA inoculation, observed for a week",100%
same,survival (%) at dosage 1.0 mg/kg,observed for a week,100%
same,survival (%) at dosage 3.0 mg/kg,observed for a week,100%
same,50% effective dose,,0.06 mg/kg
